Experimental data as given in patent publication US4921850A, “3-propenylcephem derivative” (Eisai Co., Ltd., priority 1986, dated 1990).
Converted amounts (≈) assume the structure as drawn. Where two headings read alike, the source gives them in different places.

Tests used:
Assay in all cases: Anti-bacterial activity (MIC), agar dilution
Format in all cases: cell-based
[1] = system: Escher. coli NIHJ; conditions: Escher. coli NIHJ, agar dilution, about 10^6 CFU/ml, 18 hours, 37° C.
Procedure: (§1) MIC (μg/ml) were determined by an agar dilution method [Chemotherapy (Japan), 29, 76-79, 1981]. Overnight cultures of the bacterial strains in Mueller-Hinton broth were diluted to final concentration of about 10^6 CFU/ml, and 5 μl of each bacterial suspension was spotted onto Mueller-Hinton agar plates that contained twofold serial dilutions of antibiotics. MICs were measured after incubation for 18 hours at 37° C.

[2] = system: Kleb. pneumoniae EK-6; conditions: Kleb. pneumoniae EK-6, agar dilution, about 10^6 CFU/ml, 18 hours, 37° C.
Procedure: as §1

[3] = system: Morganella morganii EP-14; conditions: about 10^6 CFU/ml, 37° C.
Procedure: as §1

[4] = system: Pseud. aeruginosa EP-01; conditions: Pseud. aeruginosa EP-01, agar dilution, about 10^6 CFU/ml, 18 hours, 37° C.
Procedure: as §1

[5] = system: Ser. marcescens ES-75; conditions: Ser. marcescens ES-75, agar dilution, about 10^6 CFU/ml, 18 hours, 37° C.
Procedure: as §1

[6] = system: Staph. aureus 209-P; conditions: Staph. aureus 209-P, agar dilution, about 10^6 CFU/ml, 18 hours, 37° C.
Procedure: as §1

[7] = Escherichia coli, 18 h, read-out: MIC
[8] = Klebsiella pneumoniae, EK6, 18 h, read-out: MIC
[9] = Morganella morganii, EP14, 18 h, read-out: MIC
[10] = Pseudomonas aeruginosa, EP01, 18 h, read-out: MIC
[11] = Serratia marcescens, ES75, 18 h, read-out: MIC
[12] = Staphylococcus aureus, 209P, 18 h, read-out: MIC

MIC [1, 7]	MIC [2, 8]	MIC [3, 9]	MIC [4, 10]	MIC [5, 11]	MIC [6, 12]	Compound	MIC [1]	MIC [2]	MIC ([3]; 18 hours)	MIC [4]	MIC [5]	MIC [6]
≤ 0.025 µg/mL	≤ 0.025 µg/mL	≤ 0.025 µg/mL	0.8 µg/mL (≈ 1.29 µM)	0.05 µg/mL (≈ 0.0807 µM)	0.2 µg/mL (≈ 0.323 µM)	C[N+]1(C/C=C/C2=C(C(=O)[O-])N3C(=O)[C@@H](NC(=O)/C(=N\OCF)c4nsc(N)n4)[C@H]3SC2)CCN(S(N)(=O)=O)CC1 [Example 119, 7β-[2-(5-Amino-1,2,4-thiadiazol-3-yl)-(Z)-2-fluoromethoxyiminoacetamido]-3-[(E)-3-(1-methyl-4-sulfamoyl-1-piperazinio)-1-propen-1-yl]-3-cephem-4-carboxylate]						
≤ 0.025 µg/mL	≤ 0.025 µg/mL	≤ 0.025 µg/mL	0.8 µg/mL (≈ 1.4 µM)	≤ 0.025 µg/mL	0.2 µg/mL (≈ 0.35 µM)	C[N+]1(CC=CC2=C(C(=O)[O-])N3C(=O)C(NC(=O)C(=NOCF)c4nsc(N)n4)C3SC2)CC(O)CC1CO (stereo not drawn) [Example 89-1]						
≤ 0.025 µg/mL	≤ 0.025 µg/mL	≤ 0.025 µg/mL	1.56 µg/mL (≈ 2.73 µM)	≤ 0.025 µg/mL	0.4 µg/mL (≈ 0.701 µM)	CNC(=O)[C@@H](C)[N+](C)(C)C/C=C/C1=C(C(=O)[O-])N2C(=O)[C@@H](NC(=O)/C(=N\OCF)c3nsc(N)n3)[C@H]2SC1 [Example 59]						
0.05 µg/mL (≈ 0.0925 µM)	≤ 0.025 µg/mL	0.05 µg/mL (≈ 0.0925 µM)	0.8 µg/mL (≈ 1.48 µM)	0.1 µg/mL (≈ 0.185 µM)	0.2 µg/mL (≈ 0.37 µM)	C[N+]1(C/C=C/C2=C(C(=O)[O-])N3C(=O)[C@@H](NC(=O)/C(=N\OCF)c4nsc(N)n4)[C@H]3SC2)CCNCC1 [Example 124, 7β[2-(5-Amino-1,2,4-thiadiazol-3-yl)-(Z)-2-fluoromethoxyiminoacetamido]-3-[(E)-3-(1-methyl-1-piperazinio)-1-propen-1-yl]-3-cephem-4-carboxylate]						
0.05 µg/mL (≈ 0.0892 µM)	≤ 0.025 µg/mL	≤ 0.025 µg/mL	1.56 µg/mL (≈ 2.78 µM)	0.05 µg/mL (≈ 0.0892 µM)	0.2 µg/mL (≈ 0.357 µM)	Nc1nc(/C(=N/OCF)C(=O)N[C@@H]2C(=O)N3C(C(=O)[O-])=C(/C=C/C[N+](N)(CCO)CCO)CS[C@H]23)ns1 [Example 107]						
≤ 0.025 µg/mL	0.05 µg/mL (≈ 0.0884 µM)	0.05 µg/mL (≈ 0.0884 µM)	3.13 µg/mL (≈ 5.53 µM)	0.1 µg/mL (≈ 0.177 µM)	0.4 µg/mL (≈ 0.707 µM)	C[N+](C)(C/C=C/C1=C(C(=O)[O-])N2C(=O)[C@@H](NC(=O)/C(=N\OCF)c3nsc(N)n3)[C@H]2SC1)Cc1cnc[nH]1 [Example 106]						

Further lines, the compound ahead of its results:

Compound	MIC [1, 7]	MIC [2, 8]	MIC [3, 9]	MIC [4, 10]	MIC [5, 11]	MIC [6, 12]	MIC [1]	MIC [2]	MIC ([3]; 18 hours)	MIC [4]	MIC [5]	MIC [6]
NC(=O)N1CC[N+](C/C=C/C2=C(C(=O)[O-])N3C(=O)[C@@H](NC(=O)/C(=N\OCF)c4nsc(N)n4)[C@H]3SC2)(CCO)CC1 [Example 28]	0.05 µg/mL (≈ 0.0815 µM)	0.05 µg/mL (≈ 0.0815 µM)	0.05 µg/mL (≈ 0.0815 µM)	1.56 µg/mL (≈ 2.54 µM)	0.2 µg/mL (≈ 0.326 µM)	0.4 µg/mL (≈ 0.652 µM)						
C[N+]1(C/C=C/C2=C(C(=O)[O-])N3C(=O)[C@@H](NC(=O)/C(=N\OCC#N)c4nsc(N)n4)[C@H]3SC2)CCN(S(N)(=O)=O)CC1 [Example 156]	0.1 µg/mL (≈ 0.16 µM)	0.1 µg/mL (≈ 0.16 µM)	0.1 µg/mL (≈ 0.16 µM)	0.8 µg/mL (≈ 1.28 µM)	0.1 µg/mL (≈ 0.16 µM)	0.4 µg/mL (≈ 0.638 µM)						
Nc1nc(/C(=N/OCF)C(=O)N[C@@H]2C(=O)N3C(C(=O)[O-])=C(/C=C/C[N+]45CCN(CC4)CC5)CS[C@H]23)ns1 [Example 129, 7β-[2-(5-Amino-1,2,4-thiadiazol-3-yl)-(Z)-2-fluoromethoxyiminoacetamido]-3-[(E)-3-(1,4-diazabicyclo[2,2,2]octan-1-io)-1-propen-1-yl]-3-cephem-4-carboxylate]	≤ 0.025 µg/mL	≤ 0.025 µg/mL	≤ 0.025 µg/mL	0.8 µg/mL (≈ 1.45 µM)	0.05 µg/mL (≈ 0.0905 µM)	0.2 µg/mL (≈ 0.362 µM)						
N#CCO/N=C(\C(=O)N[C@@H]1C(=O)N2C(C(=O)[O-])=C(/C=C/C[n+]3ccc(C(N)=O)cc3)CS[C@H]12)c1nsc(N)n1 [Example 158, 7β-[2-(5-Amino-1,2,4-thiadiazol-3-yl)-(Z)-2-cyanomethoxyiminoacetoamido]-3-[(E)-3-(4-carbamoylpyridinio)-1-propen-1-yl]-3-cephem-4-carboxylate]	≤ 0.025 µg/mL	≤ 0.025 µg/mL	0.1 µg/mL (≈ 0.176 µM)	1.56 µg/mL (≈ 2.74 µM)	0.1 µg/mL (≈ 0.176 µM)	0.2 µg/mL (≈ 0.351 µM)						
NC(=O)C[N+]1(C/C=C/C2=C(C(=O)[O-])N3C(=O)[C@@H](NC(=O)/C(=N\OCF)c4nsc(N)n4)[C@H]3SC2)CCC(O)C1 (stereo partly drawn) [Example 9-2, 7β-[2-(5-Amino-1,2,4-thiadiazol-3-yl)-(Z)-2-fluoromethoxyiminoacetamido]-3-[(E)-3-(1-carbamoylmethyl-3-hydroxy-1-pyrrolidinio)-1-propen-1-yl]-3-cephem-4-carboxylate]							≤ 0.025 µg/mL	≤ 0.025 µg/mL	≤ 0.025 µg/mL	0.8 µg/mL (≈ 1.37 µM)	≤ 0.025 µg/mL	0.4 µg/mL (≈ 0.684 µM)
